Efficacy data for 49 compounds are collected here from the supplement of paper PMC10290057.

Structures are written as SMILES. Structures can show the parent of a compound that is named as a salt.
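Note: Luminescence-based viability readout, five doses per compound, normalized against on-plate DMSO and empty-well controls, followed by dose-response curve fitting for every drug.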

The assay has as its system HCT116. The assay is described as follows: efficacy (fitted maximal change in viability relative to DMSO control); higher = less cytotoxic (negative = loss of viability). The note with it: 48 h.
`CNC(=O)[C@H](Cc1c[nH]c2ccccc12)NC(=O)[C@@H](CC(=O)NO)CC(C)C` [Ilomastat (GM6001, Galardin)]: the efficacy is -7.39%.

In the case of `C[C@@H]\1/N=C(/N)NC(=N1)\N(C)C` [Imeglimin], the efficacy was -5.96%.

For `CC(C)Cn1cnc2c(N)nc3ccccc3c21` [Imiquimod], the efficacy is -14.9%.

In the case of `CC1Cc2ccccc2N1NC(=O)c1ccc(Cl)c([S+](N)(=O)[O-])c1` (centres undefined) [Indapamide], the efficacy is -9.36%.

Take `O=C1Nc2ccccc2/C1=C1\Nc2ccccc2C1=O` [Indirubin]: the efficacy is -9.8%.

Regarding `Cn1cc(C[C@@H](N)C(=O)O)c2ccccc21` [Indoximod], the efficacy was -9.77%.

`C/C=C(/C)C(=O)O[C@H]1C(C)=CC23C(=O)C(C=C(CO)[C@@H](O)[C@]12O)[C@H]1[C@@H](C[C@H]3C)C1(C)C` (some centres undefined) [Ingenol mebutate]: the efficacy was -63.6%.

Consider `NC(=O)c1ccc(I)c([N+](=O)[O-])c1` [Iniparib], for which the efficacy is -14.6%.

For the compound `CC(C)Oc1ccc2c(=O)c(-c3ccccc3)coc2c1` [Ipriflavone], the efficacy is -27.7%.

Turning to `Cc1csc(NC(=O)c2sc3nc4c(c(C(F)(F)F)c3c2N)CCC4)n1` [Irestatin 9389], the efficacy was -42%.

For the compound `N[S+]([O-])(=O)OC1=CC=C2\C3=C(CCCCC3)/C(=O)OC2=C1` [Irosustat (STX-64)], the efficacy was -30.6%.

With `CN[C@@H]1[C@@H](O)[C@@H](O[C@@H]2[C@@H](O)[C@H](O[C@H]3O[C@H](CN)[C@@H](O)[C@H](O)[C@H]3O)[C@@H](N)C[C@H]2NC(=O)C(O)CN)OC[C@]1(C)O.O=S(=O)(O)O` (some centres undefined) [Isepamicin sulfate], the efficacy is -15.7%.

With `O=C(/C=C/c1ccc(O)cc1)c1ccc(O)cc1O` [Isoliquiritigenin], the efficacy was -62%.

For the compound `CC(C)NCC(O)c1ccc(O)c(O)c1` (centres undefined) [Isoprenaline hydrochloride], the efficacy was -16.7%.

Take `CC1=C(/C=C/C(C)=C/C=C/C(C)=C\C(=O)O)C(C)(C)CCC1` [Isotretinoin]: the efficacy was -13.5%.

As for `CCn1c(=O)c2c(nc(/C=C/c3ccc(OC)c(OC)c3)n2C)n(CC)c1=O` [Istradefylline], the efficacy is -9.26%.

Take `N#CCC1(n2cc(-c3ncnc4[nH]ccc34)cn2)CN(C2CCN(C(=O)c3ccnc(C(F)(F)F)c3F)CC2)C1` [Itacitinib]: the efficacy was -26.4%.

On to `CCC(C)N1\N=C/N(C1=O)C2=CC=C(C=C2)N3CCN(CC3)C4=CC=C(OC[C@H]5CO[C@@](C[N]6C=NC=N6)(O5)C7=CC=C(Cl)C=C7Cl)C=C4` (some centres undefined) [Itraconazole], for which the efficacy was -32.6%.

On to `COc1cc2c(cc1OC)CC(=O)N(CCCN(C)C[C@H]1Cc3cc(OC)c(OC)cc31)CC2` [Ivabradine hydrochloride], for which the efficacy was -21.3%.

Consider `CC(=O)OCCN1C(=O)c2c(C)nc3ccc([S+](=O)([O-])N4CCOCC4)cc3c2C1=O` [Ivachtin], for which the efficacy is -16.7%.

Turning to `N#Cc1ccnc(N2C(=O)CC[C@H]2C(=O)N(c2cncc(F)c2)[C@H](C(=O)NC2CC(F)(F)C2)c2ccccc2Cl)c1` [Ivosidenib], the efficacy was -25.4%.

Consider `C=CC(=O)Nc1ccc(F)c(-c2ncnc3[nH]cc(C(=O)OCC)c23)c1` [JAK3i], for which the efficacy is -66%.

`CCOc1ccc(Nc2nc(-c3c(C)nc4ccccn34)cs2)cc1` [JK-184]: the efficacy is -56.2%.

Turning to `COc1cc(SC)ccc1C(=O)N1CCC(Cc2ccccc2)CC1` [JX-401], the efficacy is -43.4%.

Take `O=C(Oc1ccc([N+](=O)[O-])cc1)N1CCC(C(O)(c2ccc3c(c2)OCO3)c2ccc3c(c2)OCO3)CC1` [JZL-184]: the efficacy is 9.17%.

Regarding `O=C(Oc1ccc([N+](=O)[O-])cc1)N1CCN(Cc2cccc(Oc3ccccc3)c2)CC1` [JZL-195], the efficacy is -38.1%.

Take `CCOC(=O)c1ccnc(CNCC(=O)N(CC)CCN(C)C)c1` [KDM5-C70]: the efficacy was 11.1%.

On to `NC(=O)c1cccc(-c2cccc(OC(=O)NC3CCCCC3)c2)c1` [KDS-4103], for which the efficacy is -18%.

On to `CCOC(=O)c1c(/C(C#N)=C\N)c2ccc(Cl)c(Cl)c2n1C` [KH-CB19], for which the efficacy was -9.36%.

Turning to `COc1cc([C@@H](CC(=O)O)c2ccc(C)c(CN3C[C@@H](C)Oc4ccccc4[S+]3(=O)[O-])c2)cc2nnn(C)c12` [KI-696], the efficacy was -21.8%.

On to `C[S+](=O)([O-])N(Cc1ccco1)CC(O)Cn1c2ccccc2c2ccccc21` (centres undefined) [KL001], for which the efficacy was -21.8%.

With `CN(C(Cc1ccc(OS(=O)(=O)c2cccc3cnccc23)cc1)C(=O)N1CCN(c2ccccc2)CC1)S(=O)(=O)c1cccc2cnccc12` (centres undefined) [KN-62], the efficacy was -21.2%.

Take `CCCNC(=O)Nc1ccc(Oc2ncnc3cc(OC)c(OC)cc23)cc1Cl` [KRN-633]: the efficacy was -12.8%.

As to `OC1=CC=C(C=C1)\C2=C(O)\C(=O)C3=C(O2)C=C(O)C=C3O` [Kaempferol], the efficacy came to 12.7%.

As for `O=C(c1ccccc1)c1ccc2n1CCC2C(=O)O` (centres undefined) [Ketorolac], the efficacy is -7.25%.

For `CN1CCC(=C2c3ccccc3CC(=O)c3sccc32)CC1` [Ketotifen], the efficacy was -39.1%.

For the compound `c1coc(CNc2ncnc3nc[nH]c23)c1` [Kinetin], the efficacy was -22.2%.

Regarding `N[C@@H](Cc1cc(I)c(Oc2cc(I)c(O)c(I)c2)c(I)c1)C(=O)O` [L-Thyroxine], the efficacy was -8.54%.

Regarding `CN[C@@H](C)C(=O)N[C@H](C(=O)N1CCC[C@H]1c1nc(C(=O)c2ccc(F)cc2)cs1)C1CCCCC1` [LCL-161], the efficacy was -23.8%.

Turning to `C/C(O)=C(\C#N)C(=O)Nc1cc(Br)ccc1Br` [LFM-A13], the efficacy is -11.7%.

As to `CC(N[C@H]1C[C@@H]1c1ccccc1)c1ccc2c(c1)OCCO2` (some centres undefined) [LSD1-C76], the efficacy is -23.9%.

As for `NCCCC[C@H](NC(=O)[C@@H](NC(=O)[C@H](Cc1c[nH]c2ccccc12)NC(=O)[C@H](CCCCN)NC(=O)[C@H](CCCCN)NC(=O)[C@H](Cc1c[nH]c2ccccc12)NC(=O)[C@H](Cc1c[nH]c2ccccc12)NC(=O)[C@H](CCCCN)NC(=O)[C@@H](N)CCCCN)C(c1ccccc1)c1ccccc1)C(N)=O` [LTX-315], the efficacy is -89.2%.

For `COC[C@@H](NC(C)=O)C(=O)NCc1ccccc1` [Lacosamide], the efficacy was -14.4%.

Turning to `NC\1=N\C(=O)N(\C=C1)[C@@H]2CS[C@H](CO)O2` [Lamivudine], the efficacy is -6.75%.

As to `Cc1c(OCC(F)(F)F)ccnc1C[S+]([O-])c1nc2ccccc2[nH]1` (centres undefined) [Lansoprazole], the efficacy was -18.3%.

Consider `C[S+](=O)([O-])c1cc(F)cc2c3c(n(Cc4ccc(Cl)cc4)c12)[C@@H](CC(=O)O)CC3` [Laropiprant], for which the efficacy is -18.4%.

With `Nc1cccc2c1CN([C@H]1CCC(=O)NC1=O)C2=O` [Lenalidomide], the efficacy was -14%.

Turning to `N#Cc1ccc(C(c2ccc(C#N)cc2)n2cncn2)cc1` [Letrozole], the efficacy is -10.3%.

With `C[C@H]1COC2=C3N1\C=C(C(O)=O)/C(=O)C3=CC(=C2N4CCN(C)CC4)F` [Levofloxacin], the efficacy is -12.3%.
